Structures are written as SMILES. “And” between values parts separate entries of the source, which are not always exact repeats. Equal entries are not always repeated.

Consider five compounds from patent publication US5747507A, “Cardio-protective agent” (priority 1992, dated 1998).

One data set concerns vascular smooth muscle. Particulars: literature; cited from earlier work.
For data set [1] the following is noted: literature; cited from earlier work.
Data set [2] relates to endothelin-induced myocardial infarction. Nature of the data set: Inhibitory effect on endothelin-induced myocardial infarction: T-wave elevation in rabbit electrocardiogram. The class given is in vivo, Japanese White rabbits. The note with it: 3.0 mg/kg oral; for T-wave elevation: 15 min before endothelin 1.2 nmol/kg i.v., 3 min after endothelin, mean values. The text has this:
(§1) Inhibitory effect on endothelin-induced myocardial infarction
(§2) The inhibitory effect of the cardio-protective agent of the present invention on endothelin-induced myocardial infarction was examined in the following manner.
(§3) The animals used in the examination were Japanese White rabbits each weighing 2.0 to 3.1 kg, which were divided into two groups, i.e., a first group consisting of 40 rabbits and a second group consisting of 13 rabbits. The hydrochloride of the above-mentioned compound (1) was dissolved in distilled water, and the resultant solution was orally administered to each of 10 rabbits of the first group in an amount of 3.0 mg/kg (body weight). In the same manner as mentioned above, diltiazem and nicorandil were individually, orally administered to each of another 10 rabbits of the first group. As a control, distilled water was orally administered to each of the remaining 10 rabbits of the first group.
(§4) Fifteen minutes after the administration, 1.2 nmol/kg (body weight) of endothelin (manufactured and sold by Peptide Institute, Japan) was injected into the auricular vein of each of the above rabbits of the first and second groups, thereby inducing myocardial infarction. With respect to the rabbits of the first and second groups, the degree of myocardial infarction was evaluated by rabbit electrocardiogram and by measuring the activity of enzymes leaked into the rabbit plasma, respectively, as follows.
With respect to each of the rabbits of the first group, the rabbit electrocardiogram was taken just before and 3 minutes after the injection of endothelin, according to the standard limb lead II induction method [Ozawa, Training of Electrocardiogram, p. 24-32, 1984, Chugai Igaku Co., Ltd., Japan), and T-wave elevation was measured.

The test system is the same in data set [3]. Nature of the data set: Inhibitory effect on endothelin-induced myocardial infarction: lactate dehydrogenase activity in rabbit plasma. The class given is in vivo, Japanese White rabbits.
Text: as §1, §2, §3
(§5) With respect to the rabbits of the second group, the above-prepared aqueous solution of the hydrochloride of compound (1) was orally administered to each of 7 rabbits in the same manner as mentioned above, and as a control, distilled water was orally administered to each of the remaining 6 rabbits.
as §4
(§6) With respect to each of the rabbits of the second group, the blood was collected using a heparinized syringe just before and thirty minutes after the intravenous administration of endothelin. The collected blood was subjected to centrifugation using a cooling centrifuge (CR20B2, manufactured and sold by Hitachi Corp., Japan), to thereby separate plasma. […]

For data set [4] the test system is unchanged. Nature of the data set: Inhibitory effect on endothelin-induced myocardial infarction: creatine kinase activity in rabbit plasma. The class given is in vivo, Japanese White rabbits.
Text: as §1, §2, §3, §5, §4, §6

Data set [5] concerns isolated hearts. Nature of the data set: Inhibitory effect on myocardial cell injury caused by ischemia/reperfusion (1): coronary artery flow of isolated hearts (Langendorff method). Set-up: species or system male Wistar rats. Particulars: for Coronary flow change (% based on pre-ischemic values): 40 min after initiation of reperfusion; for Lowering of coronary artery flow (in words): ischemia/reperfusion; for Bradycardia and cardiac arrest (in words): perfused isolated hearts. An excerpt: Inhibitory effect on myocardial cell injury caused by ischemia/reperfusion (1)
(§7) Hearts excised from male Wistar rats (approximately six-week old) were perfused with the Krebs-Heiseleit solution according to the Langendorff method [Tamura and Fujii, "Yakurigaku Jikkenho (Experimental Methods in Pharmacology)", pp. 176-177, 1990, published by Kyodo-isho Publishing Co., Ltd., Japan; and Yamada, Kubota et al., "Yakurigaku Jisshu (Pharmacological Practice)", pp. 79-81, 1979, published by Kodansha Scientific Co., Ltd., Japan]. After the isolated hearts were allowed to stabilize, the flowing of the perfusate was temporarily stopped, and the isolated hearts were allowed to be in an ischemic state for 40 minutes. Subsequently, reperfusion was conducted for 40 minutes.
Hydrochlorides of compounds (1) and (83) mentioned above were individually dissolved in distilled water, and the resultant aqueous solutions of the hydrochlorides of compounds (1) and (83) were individually introduced to and perfused in a perfusion circuit with the reperfusate for 5 minutes simultaneously with the initiation of reperfusion. In the same manner as mentioned above, diltiazem as a comparative agent and physiological saline as a control were individually perfused with the reperfusate. The perfusion conditions of the aqueous solutions of the hydrochlorides of compounds (1) and (83), diltiazem and physiological saline are shown in Table 3.
With respect to each of the test agents, the coronary artery flow was measured just before the ischemia, i.e., the stopping of the perfusion, and 40 minutes after the initiation of reperfusion using an electromagnetic flow probe FF-030P (manufactured and sold by Nippon Koden Corp., Japan).

Data set [6] has as its system isolated hearts. Nature of the data set: Inhibitory effect on myocardial cell injury caused by ischemia/reperfusion (2): leaked lactate dehydrogenase activity, isolated hearts (Langendorff method). Set-up: species or system rats. Particulars: for Lactate dehydrogenase activity, before ischemia / Lactate dehydrogenase activity, 10 min after initiation of reperfusion: mean values; for Activities of the leaked enzymes (in words): lactate dehydrogenase and creatine kinase, ischemia/reperfusion.
Text: as §7
(§8) Inhibitory effect on myocardial cell injury caused by ischemia/reperfusion (2)
(§9) In the same manner as in Example 2, hearts excised from rats were perfused in the Krebs-Henseleit solution in accordance with the Langendorff method. After the isolated hearts were allowed to stabilize, the flowing of the perfusate was temporarily stopped, and the isolated hearts were allowed to be in an ischemic state for 20 minutes. Subsequently, reperfusion was conducted for 60 minutes. As activities of the leaked enzymes, the lactate dehydrogenase activity and […] activity were examined with respect to each of the samples using an autoanalizer (Super Z 818, manufactured and sold by NITTEC Co., Ltd., Japan). The aqueous solutions of the hydrochlorides of compounds (1) and (83) were individually introduced to and perfused in a perfusion circuit with reperfusate simultaneously with the initiation of the reperfusion under the conditions as shown in Table 4. As a control, physiological saline was perfused with the reperfusate in the same manner as mentioned above. The above-mentionedactivities of the enzymes leaked into the perfusate and reperfusate were, respectively, measured before the ischemia and 10 minutes after the initiation of reperfusion.

Data set [7] deals with isolated hearts. Nature of the data set: Inhibitory effect on myocardial cell injury caused by ischemia/reperfusion (2): leaked creatine kinase activity, isolated hearts (Langendorff method). On the set-up: species or system rats. Particulars: mean values.
Text: as §7, §8, §9

For data set [8] the following is noted: literature; cited from earlier work. This is another data set of the same source.
For data set [9] the following is noted: literature; cited from earlier work. This is another data set of the same source.
The subject of the next data set is heart. The note with it: in vivo; cited from earlier work.
Another data set has as its system Japanese White rabbits. Kind of data set: Toxicity in oral administration. Particulars: 30 mg/kg (body weight). The class given is in vivo. An excerpt:
Toxity in oral administration

Setting [10] is: plasma, 3.0 mg/kg oral, 30 min after i.v. endothelin, mean values.
Where [11] appears, read: plasma, 3.0 mg/kg oral, just before i.v. endothelin, mean values.

For `N=C(N)NCCNS(=O)(=O)c1cccc2cnccc12` [(104), N-(2-guanidinoethyl)-5-isoquinolinesulfonamide], the “Effect on vascular smooth muscle” value in the data set with vascular smooth muscle was “relaxing effect on vascular smooth muscle”. Besides, the “Effect on blood flow” value in data set [1] is “increasing effect on blood flow”.

Regarding `O=C(NCCO[N+](=O)[O-])c1cccnc1` [Nicorandil], in data set [2], the “Inhibition of T-wave elevation (in words)” value (“Inhibition” for short) is listed as “T-wave elevation was not inhibited” and the T-wave elevation is listed as 0.58 mV.

For the compound `O=S(=O)(c1cccc2cnccc12)N1CCCNCC1` [compound (1), 1-(5-isoquinolinesulfonyl)homopiperazine], in data set [2], the “Inhibition” value was “can remarkably inhibit the T-wave elevation”. In data set [2], the T-wave elevation was 0.00 mV and 0 mV. Also, in data set [3] (caused by i.v. endothelin), the “Effect on lactate dehydrogenase activity in plasma (in words)” value is given as “had an inhibitory effect”. Besides, the “Lactate dehydrogenase activity, 30 min after administration” value in data set [3] (setting [10]) came out at 52.1 IU/1. Also, the “Lactate dehydrogenase activity, just before administration” value in data set [3] (setting [11]) was 29.7 IU/1. In addition, the “Effect on creatine kinase activity in plasma (in words)” value in data set [4] (caused by i.v. endothelin) is “had an inhibitory effect”. Moreover, the “Creatine kinase activity, 30 min after administration” value in data set [4] (setting [10]) was found to be 163.9 IU/1. The “Creatine kinase activity, just before administration” value in [4] (setting [11]) came to 114.6 IU/1. Further, in the data set with isolated hearts [5] (3 × 10^-6 M), the “Coronary flow change (% based on pre-ischemic values)” value is recorded as 70%. Also, the “Lowering of coronary artery flow (in words)” value with isolated hearts [5] is “greatly inhibited”. Besides, the “Bradycardia and cardiac arrest (in words)” value in the data set with isolated hearts [5] is “neither bradycardia nor cardiac arrest occurred”. In addition, the entries for the “Lactate dehydrogenase activity, before ischemia” value with isolated hearts [6] (10^-5 M group) and in the data set with isolated hearts [6] (10^-6 M group) were 21.3 IU/min and 22.8 IU/min, respectively. Besides, the “Lactate dehydrogenase activity, 10 min after initiation of reperfusion” value with isolated hearts [6] (10^-5 M) came to 575.3 IU/min; with isolated hearts [6] (10^-6 M), 732.8 IU/min. Besides, the “Activities of the leaked enzymes (in words)” value in the data set on isolated hearts [6] was “greatly inhibited”. Moreover, the “Creatine kinase activity, before ischemia” value with isolated hearts [7] (10^-5 M group) turned out to be 18.6 IU/min; in the data set on isolated hearts [7] (10^-6 M group), 26.6 IU/min. The “Creatine kinase activity, 10 min after initiation of reperfusion” value in the data set on isolated hearts [7] (10^-5 M) is listed as 901.5 IU/min; in the data set on isolated hearts [7] (10^-6 M), 1159.8 IU/min. Besides, the “Effect on vascular smooth muscle” value in the data set on vascular smooth muscle is recorded as “relaxing effect on vascular smooth muscle”. Also, the “Effect on blood flow” value in data set [1] is listed as “increasing effect on blood flow”. Also, in data set [8], the Antihypertensive effect entry is given as “antihypertensive effect”. The Cerebral protective effect entry in data set [9] is given as “cerebral protective effect”.

For `COc1ccc([C@@H]2Sc3ccccc3N(CCN(C)C)C(=O)[C@@H]2OC(C)=O)cc1` [Diltiazem, reference compound], in data set [2], the “Inhibition” value is “T-wave elevation was not inhibited” and the T-wave elevation stood at 0.46 mV. In the data set with isolated hearts [5] (1 × 10^-5 M), the “Bradycardia” value is reported as “bradycardia” and the “Cardiac arrest” value is “cardiac arrest”. The “Coronary flow change (% based on pre-ischemic values)” value in the data set on isolated hearts [5] (3 × 10^-6 M) came out at 54%. The “Bradycardia and cardiac arrest (in words)” value in the data set with isolated hearts [5] was “bradycardia and cardiac arrest occurred”. In the data set with heart, the “Side effect on atrioventricular conducting system” value was “atrioventricular conducting system of the patient is depressed” and the “Side effect on heart rate” value is listed as “decrease in heart rate”.

Turning to `O=S(=O)(c1cccc2c(O)nccc12)N1CCCNCC1` [compound (83), 1-(1-hydroxy-5-isoquinolinesulfonyl)homopiperazine], the “Coronary flow change (% based on pre-ischemic values)” value in the data set with isolated hearts [5] (1 × 10^-5 M) was 58%. Further, in the data set on isolated hearts [5] (3 × 10^-5 M), the “Coronary flow change (% based on pre-ischemic values)” value worked out at 61%. For the same compound, in the data set with isolated hearts [5], the “Lowering of coronary artery flow (in words)” value is given as “greatly inhibited”; the “Bradycardia and cardiac arrest (in words)” value is on record as “neither bradycardia nor cardiac arrest occurred”. Besides, the “Lactate dehydrogenase activity, before ischemia” value with isolated hearts [6] (10^-5 M group) came to 1.2 IU/min. Also, the “Lactate dehydrogenase activity, 10 min after initiation of reperfusion” value in the data set with isolated hearts [6] (10^-5 M) is 487.0 IU/min. In addition, the “Activities of the leaked enzymes (in words)” value in the data set on isolated hearts [6] is listed as “greatly inhibited”. Besides, in the data set with isolated hearts [7] (10^-5 M group), the “Creatine kinase activity, before ischemia” value came out at 17.4 IU/min. The “Creatine kinase activity, 10 min after initiation of reperfusion” value in the data set on isolated hearts [7] (10^-5 M) is reported as 881.5 IU/min. The “Number of rabbits died/Number of rabbits tested” value in the data set on Japanese White rabbits is on record as 0/5. In the data set on vascular smooth muscle, the “Effect on vascular smooth muscle” value is recorded as “relaxing effect on vascular smooth muscle”. In addition, the “Effect on blood flow” value in data set [1] is listed as “increasing effect on blood flow”. Besides, in [8], the Antihypertensive effect entry is “antihypertensive effect”. Further, the Cerebral protective effect result in [9] is on record as “cerebral protective effect”.
